Results on 61 molecules are retold here after a melting point compilation (Tetko et al.; mined from patent text by program, amines drawn as free bases though some values may be those of a salt).

The molecule `COCCc1sc(C(C)(O)c2nc(C)c(CCOC)s2)nc1C` returned a melting point of 50 to 51 °C.

Regarding `COc1nc(C(F)(F)F)cc(=O)n1-c1cc(C(=O)O)c(Cl)cc1F`, the melting point fell in the range of 205 to 210 °C.

As for `CCOC(=O)c1c(C(F)(F)F)nc(C(F)(F)F)c(C(=O)OC)c1N=[N+]=[N-]`, the melting point lay in the range of 46 to 47 °C.

`CC(=O)OCC(=O)C1(OC(=O)CC(C)C)CCC2C3CC(C)C4=CC(=O)C=CC4(C)C3C(O)CC21C` (stereo unspecified) gave a melting point of 172 °C.

`N#Cc1nn(Cc2ccccc2)c2ccccc12`: the melting point was 91 °C.

In turn, `CS(=O)(=O)OCCOc1ccccc1OCC(F)(F)F` showed a melting point of 36 to 38 °C.

Consider `CCn1ncnc1COc1nn2c(-c3c(F)cccc3F)nnc2cc1C(C)(C)C`, for which the melting point amounted to 182 °C.

Molecule `COc1cc(C)c2[nH]ccc2c1C(N)(c1nc2cc(C#N)ccc2[nH]1)C(F)(F)F` (single isomer, unassigned; (-)) showed a melting point of 255 °C.

`Cc1ncccc1O[C@@H]1COc2ccc(OCc3ccccc3)cc2[C@@H]1O` (relative stereo) came in with a melting point of 133 to 134 °C.

As to `CCCCC[C@H]1CC[C@H](c2ccc(-c3ccc(C#N)cc3)cc2)CC1`, the melting point turned out to be 93 °C.

Consider `Cc1cc(-n2ccnc2)c2cccc(OCc3c(Cl)ccc(S(=O)(=O)N4CCC[C@H]4C(=O)N(C)CCN(C)CCCO)c3Cl)c2n1`, for which the melting point was 98 °C.

In turn, `O=C(OCc1ccc(OCCCc2ccc(Cl)cc2)cc1)c1cccnc1` displayed a melting point of 67 to 68 °C.

For `CCN(CC)C(=S)SC(C[N+](=O)[O-])c1ccccc1` (stereo unspecified), the melting point fell in the range of 81 to 82.5 °C.

The molecule `CCOCc1nc2c(N)nc3cc(OCc4ccccc4)ccc3c2n1CC(C)(C)O` showed a melting point of 215 to 216 °C.

Molecule `CNC(=NC#N)NCCCSc1nccc(NC(N)=NCC(F)(F)F)n1` registered a melting point of 159 to 160 °C.

Molecule `CC(=O)C(=NNc1cccc2ccccc12)Sc1ccc(C(C)C)cc1` had a melting point of 130 to 133 °C.

Consider `O=C(NC(=O)c1ccc(F)cc1Cl)Nc1ccc(C(F)(F)F)cc1F`, for which the melting point amounted to 194 °C.

Consider `O=C(O)c1ccc(C(=O)N2CCOCC2)nc1`, for which the melting point lay within 181 to 183 °C.

For `O=c1oc(-c2cccc(C(F)(F)F)c2)nc2cccc(Cl)c12`, the melting point lay within 116 to 120 °C.

On to `C=CCc1cc(-c2csc(-c3ccc(OCC)c(OCC)c3)n2)cc(C(=O)OC)c1O`, for which the melting point fell in the range of 118 to 119 °C.

As to `O=C(NCc1cc(C(F)(F)F)cc(C(F)(F)F)c1)c1c(-c2ccccc2)c2ccccc2[nH]c1=O`, the melting point fell in the range of 251 to 252 °C.

Consider `c1ccc(Cn2nnnc2-c2ccccc2)cc1`, for which the melting point was in the range of 54 to 67 °C.

On to `O=C1Nc2ccccc2N2CCN(c3ccccc3)CCN12`, for which the melting point lay within 198 to 199 °C.

On to `Cc1ccc(S(=O)(=O)Nc2ccc(/C(CN3CCN(C)CC3)=N/O)cc2)cc1`, for which the melting point was 192 to 193 °C.

Regarding `CN1CCN(c2cccc3c2C[C@H](NC(=O)c2ccc(-c4ccc(O)cc4)cc2)CC3)CC1`, the melting point fell in the range of 261 to 262 °C.

Consider `NC(=O)c1ccc(-c2cccc(N)c2)cc1`, for which the melting point was 206 to 208 °C.

Molecule `O=c1cccccc1N1CCN(CCO)CC1` gave a melting point of 85 to 86 °C.

The molecule `CCc1ccc2c(c1)C=Cc1cc(C)ccc1C2c1cn(-c2ccnc(N3CC(C(=O)Nc4nnn[nH]4)C3)n2)c(=O)[nH]c1=O` (stereo unspecified) came in with a melting point of 252 °C.

For the molecule `NC(=O)N(CCCOc1ccc(C(=O)O)cc1)c1ccc(Cl)cc1`, the melting point lay in the range of 172 to 174 °C.

As for `COc1ccc(NCCSC#N)c([N+](=O)[O-])c1`, the melting point was 116 to 118 °C.

For `Cc1ccc(NC(=O)NCCN2CCN=C2c2ccccc2Cl)cc1`, the melting point was in the range of 108 to 111 °C.

Consider `CCOc1cc2c(Nc3ccc(Sc4nccn4C)c(Cl)c3)c(C#N)cnc2cc1N1CCC(N2CCCC2)CC1`, for which the melting point was 203 to 207 °C.

Molecule `COc1ccc(CCCNS(=O)(=O)Cc2ccc3[nH]cc(CC#N)c3c2)cc1` came in with a melting point of 131 to 133 °C.

Regarding `Cn1nc(-c2c(Cl)cccc2Cl)nc1-c1ccc(Br)s1`, the melting point was 130 to 132 °C.

As to `CCCN(CC)C(C)CN1CCc2c(c(=O)oc3cc(OC)ccc23)C1` (stereo unspecified), the melting point is 100 to 101 °C.

For the molecule `CCOC(=O)c1ccc(-c2cccc(CNC=O)n2)cc1`, the melting point is 120 °C.

`Fc1cccc(Cl)c1[C@@H]1C[C@H](c2ccc(Cl)cc2)Nc2ncnn21` (relative stereo): the melting point fell in the range of 227 to 228 °C.

`COc1ccccc1[C@H](c1cccc2ccccc12)[C@@](C)(C#N)C(=O)N1CCC(c2cccc(C(F)(F)F)c2)CC1` showed a melting point of 123 to 127 °C.

Consider `N#Cc1cccnc1N1CCN(CC(=O)Nc2cccc(C(F)(F)F)c2F)CC1`, for which the melting point lay in the range of 118 to 121 °C.

In turn, `C=C(CC)C(=O)c1ccc(OC(C)(C)C(=O)O)c(Cl)c1Cl` gave a melting point of 88 to 89 °C.

The molecule `COc1ccc2c(c1)CCC1=C2CCC(=O)N1` returned a melting point of 203 to 204 °C.

`NC(=O)Cc1nc(C(=O)c2ccccc2)no1`: the melting point was 156 to 158 °C.

`CCCCCCCCC(SCCCCCC)C(=O)Nc1c(SC)cc(NC(C)=O)c2ncc(C)cc12` (stereo unspecified) gave a melting point of 128 to 131 °C.

Regarding `Cc1ccc(Oc2ccc(-n3cncn3)cc2)c(O)c1`, the melting point lay within 107 to 109 °C.

`Cc1ccc2[nH]c(-c3ccc(S(N)(=O)=O)cc3)c(-c3ccccc3)c2c1` came in with a melting point of 242 to 244 °C.

As to `CC(C)Oc1ccc(Nc2ccc(N=C=O)cc2C(F)(F)F)cc1C(F)(F)F`, the melting point lay within 102 to 105 °C.

Regarding `N=C(NO)c1nn(-c2c(Cl)cc(C(F)(F)F)cc2Cl)c(C=NO)c1SC(F)(F)F`, the melting point lay within 68 to 72 °C.

As to `CC(C)n1nc(OCc2ccc3ccccc3n2)cc1CO`, the melting point lay within 137 to 138 °C.

`Cc1cc2nccc(-c3cccnc3)n2n1` came in with a melting point of 182 to 184 °C.

Molecule `CCCCc1nc(SC)c(C(=O)O)n1Cc1ccc(-c2ccccc2C(=O)O)cc1` showed a melting point of 220 °C.

Molecule `CC(C)NC(c1nccn1C)C1(c2ccc(Cl)c(Cl)c2)CCC1` (stereo unspecified) came in with a melting point of 98 to 100 °C.

Regarding `CCC1=Nc2c(C)nn(C)c2C2=NCCN12`, the melting point fell in the range of 148 to 150 °C.

On to `CCOc1cccc(CC(=O)O)c1OCCCc1cn(-c2ccc(Cl)cn2)nc1C(CC)CC`, for which the melting point was in the range of 92 to 93 °C.

Regarding `CC(C)NC(=O)c1ccc(-c2ccc3nnn(Cc4ccc5ncccc5c4)c3n2)cc1`, the melting point lay within 181 to 183 °C.

`BrCc1ncc(Br)cn1` came in with a melting point of 55 to 57 °C.

In turn, `Cc1nn(-c2ccc(F)cc2F)cc1C(=O)O` showed a melting point of 245 to 247 °C.

`Cc1nc(N2CCC(Cc3ccc(F)cc3)C2=O)sc1C(=O)NCc1ccc(F)cc1` (stereo unspecified) registered a melting point of 196 to 197 °C.

`CCCCc1oc2ccccc2c1C(=O)Nc1ccc2cc(O)ccc2c1` came in with a melting point of 162 to 164 °C.

The molecule `O=C(CCCN1CCC(Cc2ccccc2)CC1)c1ccc2c(c1)Cc1cc(C(=O)CCCN3CCC(Cc4ccccc4)CC3)ccc1-2` showed a melting point of 135 to 137 °C.

`c1ccc(-c2cc(-c3ccccc3)c(N3CCN(c4ncccn4)CC3)nn2)cc1`: the melting point was 71 to 74 °C.

The molecule `O=c1[nH]nc(OCC2c3ccccc3-c3ccccc32)o1` returned a melting point of 125 °C.
